Data as given in PubChem BioAssay (NCI).
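Where inhibition never reached the appropriate level, the endpoint shown equals the highest concentration tested. Otherwise, values were interpolated linearly from a five-concentration, 48-hour dose response in 96-well plates. At the TGI there is no net growth.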

Key:
Experiment in all cases: DTP human tumour cell line panel, 48 h
786-0 renal = tested on: 786-0 renal
A498 renal = tested on: A498 renal
A549 NSCLC = tested on: A549 NSCLC
ACHN renal = tested on: ACHN renal
CCRF-CEM leukemia = tested on: CCRF-CEM leukemia
COLO 205 colon = tested on: COLO 205 colon
DLD-1 colon = tested on: DLD-1 colon
DMS 114 small cell lung = tested on: DMS 114 small cell lung
DMS 273 small cell lung = tested on: DMS 273 small cell lung
EKVX NSCLC = tested on: EKVX NSCLC
HCC-2998 colon = tested on: HCC-2998 colon
HCT-116 colon = tested on: HCT-116 colon
HCT-15 colon = tested on: HCT-15 colon
HL-60(TB) leukemia = tested on: HL-60(TB) leukemia
HOP-18 NSCLC = tested on: HOP-18 NSCLC
HOP-62 NSCLC = tested on: HOP-62 NSCLC
HOP-92 NSCLC = tested on: HOP-92 NSCLC
HT29 colon = tested on: HT29 colon
IGROV1 ovarian = tested on: IGROV1 ovarian
K-562 leukemia = tested on: K-562 leukemia
KM20L2 colon = tested on: KM20L2 colon
LOX IMVI melanoma = tested on: LOX IMVI melanoma
LXFL 529 NSCLC = tested on: LXFL 529 NSCLC
M14 melanoma = tested on: M14 melanoma
M19-MEL melanoma = tested on: M19-MEL melanoma
MALME-3M melanoma = tested on: MALME-3M melanoma
MOLT-4 leukemia = tested on: MOLT-4 leukemia
NCI-H226 lung = tested on: NCI-H226 lung
NCI-H23 lung = tested on: NCI-H23 lung
NCI-H460 lung = tested on: NCI-H460 lung
NCI-H522 lung = tested on: NCI-H522 lung
OVCAR-3 ovarian = tested on: OVCAR-3 ovarian
OVCAR-4 ovarian = tested on: OVCAR-4 ovarian
OVCAR-5 ovarian = tested on: OVCAR-5 ovarian
OVCAR-8 ovarian = tested on: OVCAR-8 ovarian
RPMI-8226 leukemia = tested on: RPMI-8226 leukemia
RXF 393 renal = tested on: RXF 393 renal
SF-268 CNS = tested on: SF-268 CNS
SF-295 CNS = tested on: SF-295 CNS
SF-539 CNS = tested on: SF-539 CNS
SK-MEL-2 melanoma = tested on: SK-MEL-2 melanoma
SK-MEL-28 melanoma = tested on: SK-MEL-28 melanoma
SK-MEL-5 melanoma = tested on: SK-MEL-5 melanoma
SK-OV-3 ovarian = tested on: SK-OV-3 ovarian
SN12C renal = tested on: SN12C renal
SNB-19 CNS = tested on: SNB-19 CNS
SNB-75 CNS = tested on: SNB-75 CNS
SNB-78 CNS = tested on: SNB-78 CNS
SR leukemia = tested on: SR leukemia
SW-620 colon = tested on: SW-620 colon
TK-10 renal = tested on: TK-10 renal
U251 CNS = tested on: U251 CNS
UACC-257 melanoma = tested on: UACC-257 melanoma
UACC-62 melanoma = tested on: UACC-62 melanoma
UO-31 renal = tested on: UO-31 renal
XF 498 CNS = tested on: XF 498 CNS
CAKI-1 renal = tested on: CAKI-1 renal
KM12 colon = tested on: KM12 colon

Compound: Cc1ccc(NC(=O)C2C3C=CC(O3)C2C(=O)O)cc1 (stereo unspecified)
- TGI (786-0 renal): > 100 µM
- TGI (A498 renal): > 100 µM
- TGI (A549 NSCLC): > 100 µM
- TGI (ACHN renal): > 100 µM
- TGI (CCRF-CEM leukemia): > 100 µM
- TGI (COLO 205 colon): > 100 µM
- TGI (DLD-1 colon): > 100 µM
- TGI (DMS 114 small cell lung): > 100 µM
- TGI (DMS 273 small cell lung): > 100 µM
- TGI (EKVX NSCLC): > 100 µM
- TGI (HCC-2998 colon): > 100 µM
- TGI (HCT-116 colon): > 100 µM
- TGI (HCT-15 colon): > 100 µM
- TGI (HL-60(TB) leukemia): > 100 µM
- TGI (HOP-18 NSCLC): > 100 µM
- TGI (HOP-62 NSCLC): > 100 µM
- TGI (HOP-92 NSCLC): > 100 µM
- TGI (HT29 colon): 39.8 µM
- TGI (IGROV1 ovarian): > 100 µM
- TGI (K-562 leukemia): > 100 µM
- TGI (KM20L2 colon): > 100 µM
- TGI (LOX IMVI melanoma): 47.4 µM
- TGI (LXFL 529 NSCLC): > 100 µM
- TGI (M14 melanoma): > 100 µM
- TGI (M19-MEL melanoma): > 100 µM
- TGI (MALME-3M melanoma): > 100 µM
- TGI (MOLT-4 leukemia): > 100 µM
- TGI (NCI-H226 lung): > 100 µM
- TGI (NCI-H23 lung): > 100 µM
- TGI (NCI-H460 lung): > 100 µM
- TGI (NCI-H522 lung): > 100 µM
- TGI (OVCAR-3 ovarian): > 100 µM
- TGI (OVCAR-4 ovarian): > 100 µM
- TGI (OVCAR-5 ovarian): > 100 µM
- TGI (OVCAR-8 ovarian): > 100 µM
- TGI (RPMI-8226 leukemia): 54.7 µM
- TGI (RXF 393 renal): 80.1 µM
- TGI (SF-268 CNS): > 100 µM
- TGI (SF-295 CNS): > 100 µM
- TGI (SF-539 CNS): > 100 µM
- TGI (SK-MEL-2 melanoma): > 100 µM
- TGI (SK-MEL-28 melanoma): > 100 µM
- TGI (SK-MEL-5 melanoma): > 100 µM
- TGI (SK-OV-3 ovarian): > 100 µM
- TGI (SN12C renal): > 100 µM
- TGI (SNB-19 CNS): > 100 µM
- TGI (SNB-75 CNS): > 100 µM
- TGI (SNB-78 CNS): > 100 µM
- TGI (SR leukemia): > 100 µM
- TGI (SW-620 colon): 26.8 µM
- TGI (TK-10 renal): > 100 µM
- TGI (U251 CNS): > 100 µM
- TGI (UACC-257 melanoma): > 100 µM
- TGI (UACC-62 melanoma): > 100 µM
- TGI (UO-31 renal): > 100 µM
- TGI (XF 498 CNS): > 100 µM

Compound: COc1ccc(/C=C/c2onc3c(=O)n(C)nc(-c4ccccc4)c23)cc1
- TGI (786-0 renal): > 100 µM
- TGI (A549 NSCLC): > 100 µM
- TGI (ACHN renal): > 100 µM
- TGI (CAKI-1 renal): 82.2 µM
- TGI (CCRF-CEM leukemia): > 100 µM
- TGI (COLO 205 colon): > 100 µM
- TGI (DLD-1 colon): > 100 µM
- TGI (DMS 114 small cell lung): > 100 µM
- TGI (DMS 273 small cell lung): > 100 µM
- TGI (EKVX NSCLC): > 100 µM
- TGI (HCT-116 colon): > 100 µM
- TGI (HCT-15 colon): > 100 µM
- TGI (HL-60(TB) leukemia): > 100 µM
- TGI (HOP-18 NSCLC): > 100 µM
- TGI (HOP-62 NSCLC): > 100 µM
- TGI (HOP-92 NSCLC): 80.5 µM
- TGI (HT29 colon): > 100 µM
- TGI (IGROV1 ovarian): > 100 µM
- TGI (K-562 leukemia): > 100 µM
- TGI (KM20L2 colon): > 100 µM
- TGI (LOX IMVI melanoma): > 100 µM
- TGI (LXFL 529 NSCLC): > 100 µM
- TGI (M14 melanoma): > 100 µM
- TGI (M19-MEL melanoma): > 100 µM
- TGI (MOLT-4 leukemia): > 100 µM
- TGI (NCI-H23 lung): > 100 µM
- TGI (NCI-H460 lung): > 100 µM
- TGI (NCI-H522 lung): > 100 µM
- TGI (OVCAR-8 ovarian): > 100 µM
- TGI (RPMI-8226 leukemia): > 100 µM
- TGI (RXF 393 renal): > 100 µM
- TGI (SF-268 CNS): > 100 µM
- TGI (SF-539 CNS): > 100 µM
- TGI (SK-MEL-28 melanoma): > 100 µM
- TGI (SK-MEL-5 melanoma): > 100 µM
- TGI (SK-OV-3 ovarian): > 100 µM
- TGI (SN12C renal): > 100 µM
- TGI (SNB-19 CNS): > 100 µM
- TGI (SW-620 colon): > 100 µM
- TGI (TK-10 renal): > 100 µM
- TGI (U251 CNS): > 100 µM
- TGI (UACC-62 melanoma): > 100 µM
- TGI (UO-31 renal): > 100 µM
- TGI (XF 498 CNS): > 100 µM

Compound: Cc1ccc(C(=O)NC2CCCCC2)cc1N=NN(C)C
- TGI (786-0 renal): > 100 µM
- TGI (A549 NSCLC): > 100 µM
- TGI (ACHN renal): > 100 µM
- TGI (CAKI-1 renal): > 100 µM
- TGI (DLD-1 colon): > 100 µM
- TGI (DMS 273 small cell lung): > 100 µM
- TGI (EKVX NSCLC): > 100 µM
- TGI (HCC-2998 colon): > 100 µM
- TGI (HCT-116 colon): > 100 µM
- TGI (HCT-15 colon): > 100 µM
- TGI (HOP-62 NSCLC): > 100 µM
- TGI (HOP-92 NSCLC): > 100 µM
- TGI (HT29 colon): > 100 µM
- TGI (IGROV1 ovarian): > 100 µM
- TGI (KM12 colon): > 100 µM
- TGI (KM20L2 colon): > 100 µM
- TGI (LOX IMVI melanoma): > 100 µM
- TGI (LXFL 529 NSCLC): > 100 µM
- TGI (M14 melanoma): > 100 µM
- TGI (M19-MEL melanoma): > 100 µM
- TGI (NCI-H23 lung): > 100 µM
- TGI (NCI-H460 lung): > 100 µM
- TGI (NCI-H522 lung): > 100 µM
- TGI (OVCAR-3 ovarian): > 100 µM
- TGI (OVCAR-4 ovarian): > 100 µM
- TGI (OVCAR-8 ovarian): > 100 µM
- TGI (SF-268 CNS): > 100 µM
- TGI (SF-295 CNS): > 100 µM
- TGI (SF-539 CNS): > 100 µM
- TGI (SK-MEL-2 melanoma): > 100 µM
- TGI (SK-MEL-28 melanoma): > 100 µM
- TGI (SK-MEL-5 melanoma): > 100 µM
- TGI (SN12C renal): > 100 µM
- TGI (SNB-19 CNS): > 100 µM
- TGI (SNB-78 CNS): > 100 µM
- TGI (SW-620 colon): > 100 µM
- TGI (TK-10 renal): > 100 µM
- TGI (U251 CNS): > 100 µM
- TGI (UACC-257 melanoma): > 100 µM
- TGI (UACC-62 melanoma): > 100 µM
- TGI (UO-31 renal): > 100 µM
